Columns and labels:
Assay type in all cases: in vivo
[1] = tested on: Housefly [Musca domestica]; assay: Housefly insecticidal test; conditions: μg per 25 female flies; mortality after 48 hours
Outline: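 Acetone solutions (with 0.01% peanut oil) dried onto dish bottoms, then 25 female flies, 1-2 days old, caged over the residue with sugar water. Mortality scored at 48 hours; LC50 from dosage-mortality curves, in μg per 25 female flies, top level 100 μg.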

[2] = tested on: Tobacco Budworm [Heliothis virescens (Fabricius)] eggs; assay: Tobacco budworm egg test; conditions: 2-day old eggs, percent in solution
Outline: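 2-day eggs on paper towel, acetone dip, 0.1% and below; petri dish with larval diet, 78° F. Mortality read after control hatch and larval feeding. LC50 = % compound in solution, from dose-mortality curve.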

[3] = tested on: Cabbage Looper [Trichoplusia ni (Hubner)]; assay: Cabbage looper insecticidal test; conditions: second-instar larvae, percent in solution; 3-5 days
Outline: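 LC50 values, given as percent test compound in solution, were calculated from dosage-mortality curves. Squash cotyledons were immersed 2-3 s in acetone-water (50-50) dilutions starting at 0.1%, dried on a screen, then infested with five second-instar larvae. Mortality was read 3-5 days on.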

[4] = tested on: Maize weevil [Sitophilus Zeamais (Motschulsky)]; assay: Maize weevil insecticidal test; conditions: adult weevils, percent in solution; 48 hours
Outline: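 LC50, in percent of compound in solution, was derived from dosage-mortality curves after 48 h at about 25 °C. Ten adult weevils per container fed on four corn seeds briefly immersed in acetone:water (50:50) solutions of up to 0.01% and dried.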

| Compound | LC50, HF [1] | LC50, TBW, E (TBW-E) [2] | LC50, CL [3] | LC50, MW [4] |
| --- | --- | --- | --- | --- |
| CC(C)C(=Nc1ccc(C#N)cc1)OCc1ccc(F)c(Oc2ccc(Cl)cc2)c1 [Compound 392] | < 100 µg | 0.039% | 0.00034% | > 0.01% |
| Cc1ccc(N=C(OCc2cccc(Oc3ccc(Cl)cc3)c2)C(C)C)cc1Cl [Compound 403] | < 100 µg | > 0.1% | > 0.1% | > 0.01% |
| CC(C)C(=Nc1ccc(F)c(Cl)c1)OCc1ccnc(Oc2ccccc2)c1 [Compound 510] | 54 µg | > 0.1% | 0.017% | > 0.01% |
| CC(C)C(=Nc1cccc(OC(F)(F)F)c1)OCc1ccc(F)c(Oc2ccc(Cl)cc2)c1 [Compound 436] | < 100 µg | < 0.1% | 0.00075% | > 0.01% |
| CC(C)C(=Nc1ccc2c(c1)OCO2)OCc1coc(Cc2ccccc2)c1 [Compound 483] | 6 µg | 0.05% | 0.001% | > 0.01% |
| Cc1cc(N=C(OCc2cccc(Oc3ccc(Cl)cc3)c2)C(C)C)ccc1F [Compound 397] | < 100 µg | < 0.1% | 0.0019% | > 0.01% |
| CC(C)C(=Nc1ccc(OCC(F)(F)F)c(F)c1)OCc1cccc(Oc2ccc(Cl)cc2)c1 [Compound 429] | > 100 µg | < 0.1% | 0.0017% | > 0.01% |
| CC(C)C(=Nc1ccc(C#N)cc1)OCc1cccc(Oc2ccc(Cl)cc2)c1 [Compound 393] | < 100 µg | > 0.1% | 0.00037% | > 0.01% |
| CC(C)C(=Nc1cccc([N+](=O)[O-])c1)OCc1cccc(Oc2ccccc2)c1 [Compound 302] | 15 µg | > 0.1% | 0.003% | > 0.01% |
| CC(C)C(=Nc1ccc(C(C)(C)C)cc1)OCc1ccc(F)c(Oc2ccc(Cl)cc2)c1 [Compound 301] | > 100 µg | > 0.1% | 0.008% | > 0.01% |
| Fc1ccc(COC(=Nc2ccc(C(F)(F)F)cc2)C2CC2)cc1Oc1ccccc1 [Compound 443] | < 100 µg | 0.017% | 0.00015% | < 0.01% |
| Cc1cc(N=C(OCc2ccc(F)c(Oc3ccc(Cl)cc3)c2)C(C)C)ccc1Br [Compound 407] | > 100 µg | 0.05% | > 0.1% | > 0.01% |
| CC(C)C(=Nc1ccc(F)c(Br)c1)OCc1cccc(Oc2ccccc2)n1 [Compound 558] | < 100 µg | > 0.1% | 0.00045% | > 0.01% |
| CCCc1ccc(N=C(OCc2ccc(F)c(Oc3ccc(F)cc3)c2)C(C)C)cc1 [Compound 440] | > 100 µg | < 0.1% | 0.002% | > 0.01% |
| CC(C)C(=Nc1ccc(C(F)(F)F)cc1)OCc1cccc(Oc2ccccc2)n1 [Compound 504] | < 100 µg | 0.05% | 0.00025% | 0.01% |
| COc1ccc(Oc2cccc(COC(=Nc3ccc(C(C)(C)C)cc3)C(C)C)c2)cc1 [Compound 345] | > 100 µg | > 0.1% | 0.018% | > 0.01% |
| CC(C)C(=Nc1ccc(I)c(Cl)c1)OCc1cccc(Oc2ccc(F)cc2)c1 [Compound 374] | < 100 µg | 0.02% | 0.00058% | > 0.01% |
| CC(C)C(=Nc1ccc(OC(F)(F)C(F)Cl)cc1)OCc1cccc(Oc2ccccc2)c1 (centres unmarked) [Compound 418] | > 100 µg | > 0.1% | > 0.1% | > 0.01% |
| C=C(C)C(=Nc1ccc(F)c(Cl)c1)OCc1ccc(F)c(Oc2ccc(Cl)cc2)c1 [Compound 415] | < 100 µg | 0.035% | 0.00075% | > 0.01% |
| CC(C)C(=Nc1ccc(Br)cc1)OCc1coc(Cc2ccccc2)c1 [Compound 478] | 15 µg | > 0.1% | 0.0037% | > 0.01% |
| C=C(C)C(=Nc1ccc(C(F)(F)F)cc1)OCc1cccc(Oc2ccccc2)c1 [Compound 430] | < 100 µg | 0.032% | 0.001% | 0.004% |
| CC(C)C(=Nc1ccc([N+](=O)[O-])c(C(F)(F)F)c1)OCc1cccc(Oc2ccccc2)c1 [Compound 307] | > 100 µg | 0.08% | 0.002% | > 0.01% |
| COc1ccc(N=C(OCc2ccc(F)c(Oc3ccc(Cl)cc3)c2)C(C)C)cc1Cl [Compound 410] | < 100 µg | > 0.1% | > 0.1% | > 0.01% |
| C=C(C)C(=Nc1ccc(F)c(Cl)c1)OCc1ccc(F)c(Oc2ccccc2)c1 [Compound 416] | < 100 µg | 0.018% | 0.00027% | > 0.01% |
| CC(C)C(=Nc1ccc(Cl)c(C(F)(F)F)c1)OCc1ccc(F)c(Oc2ccc(F)cc2)c1 [Compound 340] | 34 µg | 0.04% | 0.00037% | 0.0069% |
| CCc1ccccc1N=C(OCc1cccc(Oc2ccc(F)cc2)c1)C(C)C [Compound 411] | < 100 µg | > 0.1% | > 0.1% | > 0.01% |

Reference: patent US5070210A, “Novel ketenimines as intermediates for insecticides” (ICI Americas Inc., priority 1990, dated 1991)
